Measurements published in patent publication US9089129B2, “Non-aerosol foaming alcohol hand sanitizer” (AMERICAN STERILIZER COMPANY, priority 2011, dated 2015).

Experiments:
[1] = Foam quality and stability screen in 70% w/w ethanol solution; assay type: physicochemical; parameters: key: Poor: little to no foam generated; Moderate: some foam generated, and/or foam generated collapsed rapidly; Good: large amount of foam was generated and foam was stable (did not collapse rapidly); settings: approximately one gram of component in 15 grams of 70% w/w ethanol solution (aqueous), shaken by hand for 15 seconds
Method: A number of different components were screened to evaluate their ability to create a stable foam in a 70% w/w ethanol solution (aqueous). For this evaluation, approximately one gram of each component was added to 15 grams of the ethanol solution in a vial.

[2] = tested on: Serratia marcescens; test: Pigskin model, 1 and 5 inoculation/treatment cycles; settings: FIG. 4
Method: Each sample was evaluated at two different inoculation/treatment cycles, i.e., at 1 inoculation/treatment and 5 inoculations/treatments. Tests were completed using the pigskin model, the inoculant, Serratia marcescens, and 1 and 5 inoculation/treatment cycles. The “pigskin model” is a method designed to simulate a HCPHW test using pigskins prepared according to the method described in U.S. Pat. No. 7,985,773 to […] et al., incorporated herein by reference. In this example, pigskin pairs were inoculated with bacteria, rubbed together for 15 seconds, and allowed to air dry for 1 minute. The two different ethanol solutions having concentrations of 62% w/w and 70% w/w and two different product formulations N and O, one having 62% w/w ethanol (N) and the other having 70% w/w ethanol (O), were applied to pairs of pigskins (0.2 ml per pair/0.1 ml per piece). The pairs of pigskins (having the same treatment) were rubbed together for 30 seconds and allowed to air dry for 4 minutes. Neutralizer was then applied to the pigskins, they were debrided for 30 seconds, serially diluted and plated.

Molecule	Foam Profile [1]	log reduction ([2]; 1 inoculation/treatment cycle)	log reduction ([2]; 5 inoculation/treatment cycles)
OCC(O)CO [Glycerin]	Poor	–	–
Quaternium-92	Poor	–	–
Lauramine Oxide	Poor	–	–
PPG-15 Stearyl Ether	Poor	–	–
Isostearamidopropyl Morpholine Lactate	Poor	–	–
CCCCCCCCCCCCCCCCCCCCCC[N+](C)(C)C.COS(=O)(=O)[O-] [Behentrimonium Methosulfate]	Poor	–	–
Alkyl Glucoside	Poor	–	–
Glycereth-18 Ethylhexanoate	Moderate	–	–
CCCCCCCCCC[N+](C)(C)CCCCCCCCCC.[Cl-] [Didecyl dimethyl ammonium chloride]	Poor	–	–
CO[C@H]1CO[C@H]2[C@@H]1OC[C@H]2OC [Dimethyl Isosorbide]	Poor	–	–
POE-2 Coco Amine	Poor	–	–
Quaternium-26	Poor	–	–
CCCCCCCCCCCC(=O)OC(C)C(=O)OC(C)C(=O)[O-].[Na+] (centres unmarked) [Sodium Lauroyl Lactylate]	Poor	–	–
CCO [ethanol]	–	did provide efficacy	efficacy decreased
CC(O)C(=O)O.CCCCCCCCCCCCCCCCCC(=O)NCCCN(C)C [Stearamidopropyl dimethylamine lactate]	Poor	–	–
CCCCCCCC/C=C\CCCCCCCC[N+](C)(C)Cc1ccccc1.[Cl-] [Olealkonium chloride]	Poor	–	–
CCCCCCCCCCCCCC(=O)NCCC[N+](C)(C)CC(O)CO.[Cl-] (centres unmarked) [Myristamidopropyl PG-dimonium chloride]	Poor	–	–
Glycereth-7 Cocoate	Poor	–	–
Cocamidopropyl PG-Dimonium Chloride Phosphate	Poor	–	–
